Data taken from PubChem BioAssay AID1918930 (Molecular Pharmacology Branch, DTP, NCI, 2023).
Several values for one entry are separate records, joined by “and”; a condition that tells them apart may be missing. Equal entries are not always repeated.

Test system: 233499-124-R-J3-PDC complex spheroid viability, % test/control
Assay: Anticancer human tumor 233499-124-R-J3-PDC patient-derived colon adenocarcinoma cell line growth inhibition
Conditions: for viability, T/C: stronger effect = lower value
How it was run: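 Multicellular complex spheroids of tumor cells with human endothelial cells (HUVEC) and mesenchymal stem cells; the LSD1 inhibitor iadademstat was combined with standard-of-care or investigational agents. Top concentration at or near clinical Cmax, half-log dilutions; final DMSO ≤0.25%.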

[1] = curve of first compound, second compound 0.1 µM
[2] = curve of first compound, second compound 0.316 µM
[3] = curve of first compound, second compound 1 µM
[4] = curve of first compound, second compound 3.16 µM
[5] = curve of first compound, second compound 10 µM
[6] = second compound 0.1 µM, first compound 0.00316 µM
[7] = second compound 0.1 µM, first compound 0.01 µM
[8] = second compound 0.1 µM, first compound 0.0316 µM
[9] = second compound 0.1 µM, first compound 0.1 µM
[10] = second compound 0.316 µM, first compound 0.00316 µM
[11] = second compound 0.316 µM, first compound 0.01 µM
[12] = second compound 0.316 µM, first compound 0.0316 µM
[13] = second compound 0.316 µM, first compound 0.1 µM
[14] = second compound 1 µM, first compound 0.00316 µM
[15] = second compound 1 µM, first compound 0.01 µM
[16] = second compound 1 µM, first compound 0.0316 µM
[17] = second compound 1 µM, first compound 0.1 µM
[18] = second compound 3.16 µM, first compound 0.00316 µM
[19] = second compound 3.16 µM, first compound 0.01 µM
[20] = second compound 3.16 µM, first compound 0.0316 µM
[21] = second compound 3.16 µM, first compound 0.1 µM
[22] = second compound 10 µM, first compound 0.00316 µM
[23] = second compound 10 µM, first compound 0.01 µM
[24] = second compound 10 µM, first compound 0.0316 µM
[25] = second compound 10 µM, first compound 0.1 µM
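Further: spheroids exposed to agents for one week before readout.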

`CC[C@@]1(O)C(=O)OCc2c1cc1n(c2=O)Cc2cc3c(CN(C)C)c(O)ccc3nc2-1` + NC1CC1c1ccc(-c2cccc(O)c2)cc1 was tested, and the IC50 [1] was > 100 nM, the IC50 [2] was > 100 nM and the IC50 [3] was > 100 nM. The IC50 [4] was > 100 nM, the IC50 [5] was > 100 nM and the viability, T/C (second compound 0.1 µM, first compound 0.000316 µM) was 109%. It also gave a viability, T/C (second compound 0.1 µM, first compound 0.001 µM) of 99%, a viability, T/C [6] of 81.8% and a viability, T/C [7] of 52.1%. It also gave a viability, T/C [8] of 73.5%, a viability, T/C [9] of 115% and a viability, T/C (second compound 0.316 µM, first compound 0.000316 µM) of 96.6%. The viability, T/C (second compound 0.316 µM, first compound 0.001 µM) was 90%, the viability, T/C [10] was 72.3% and the viability, T/C [11] was 71.4%. It also gave a viability, T/C [12] of 79.5%, a viability, T/C [13] of 107% and a viability, T/C (second compound 1 µM, first compound 0.000316 µM) of 86.7%. The viability, T/C (second compound 1 µM, first compound 0.001 µM) was 94%, the viability, T/C [14] was 62.1% and the viability, T/C [15] was 67.9%. It also gave a viability, T/C [16] of 57.3%, a viability, T/C [17] of 104% and a viability, T/C (second compound 3.16 µM, first compound 0.000316 µM) of 89.3%. It also gave a viability, T/C (second compound 3.16 µM, first compound 0.001 µM) of 96.3%, a viability, T/C [18] of 63.6% and a viability, T/C [19] of 68.3%. The viability, T/C [20] was 70%, the viability, T/C [21] was 94.1% and the viability, T/C (second compound 10 µM, first compound 0.000316 µM) was 77.7%. The viability, T/C (second compound 10 µM, first compound 0.001 µM) was 67.9%, the viability, T/C [22] was 53.8% and the viability, T/C [23] was 53.6%. For the same compound, the viability, T/C [24] was 58.7% and the viability, T/C [25] was 93.5%.

In the case of `O=C(C=Cc1cccc(S(=O)(=O)Nc2ccccc2)c1)NO` + NC1CCC(NC2CC2c2ccccc2)CC1, the IC50 [1] is reported as > 3000 nM, the IC50 [2] is reported as > 3000 nM and the IC50 [3] is reported as 3000 nM. The IC50 [4] was > 3000 nM, the IC50 [5] was 3000 nM and the viability, T/C (second compound 0.1 µM, first compound 0.00949 µM) was 105%. For the same compound, the viability, T/C (second compound 0.1 µM, first compound 0.03 µM) was 115%, the viability, T/C (second compound 0.1 µM, first compound 0.0949 µM) was 122% and the viability, T/C (second compound 0.1 µM, first compound 0.3 µM) was 134%. For the same compound, the viability, T/C (second compound 0.1 µM, first compound 0.949 µM) was 51.9%, the viability, T/C (second compound 0.1 µM, first compound 3 µM) was 110% and the viability, T/C (second compound 0.316 µM, first compound 0.00949 µM) was 101%. For the same compound, the viability, T/C (second compound 0.316 µM, first compound 0.03 µM) was 108%, the viability, T/C (second compound 0.316 µM, first compound 0.0949 µM) was 128% and the viability, T/C (second compound 0.316 µM, first compound 0.3 µM) was 120%. It also gave a viability, T/C (second compound 0.316 µM, first compound 0.949 µM) of 47.7%, a viability, T/C (second compound 0.316 µM, first compound 3 µM) of 106% and a viability, T/C (second compound 1 µM, first compound 0.00949 µM) of 81.3%. For the same compound, the viability, T/C (second compound 1 µM, first compound 0.03 µM) was 105%, the viability, T/C (second compound 1 µM, first compound 0.0949 µM) was 108% and the viability, T/C (second compound 1 µM, first compound 0.3 µM) was 109%. The viability, T/C (second compound 1 µM, first compound 0.949 µM) was 44.7%, the viability, T/C (second compound 1 µM, first compound 3 µM) was 78.8% and the viability, T/C (second compound 3.16 µM, first compound 0.00949 µM) was 101%. The viability, T/C (second compound 3.16 µM, first compound 0.03 µM) was 101%, the viability, T/C (second compound 3.16 µM, first compound 0.0949 µM) was 102% and the viability, T/C (second compound 3.16 µM, first compound 0.3 µM) was 116%. For the same compound, the viability, T/C (second compound 3.16 µM, first compound 0.949 µM) was 38.5%, the viability, T/C (second compound 3.16 µM, first compound 3 µM) was 89.3% and the viability, T/C (second compound 10 µM, first compound 0.00949 µM) was 79.2%. It also gave a viability, T/C (second compound 10 µM, first compound 0.03 µM) of 85.5%, a viability, T/C (second compound 10 µM, first compound 0.0949 µM) of 78.8% and a viability, T/C (second compound 10 µM, first compound 0.3 µM) of 117%. It also gave a viability, T/C (second compound 10 µM, first compound 0.949 µM) of 32.9% and a viability, T/C (second compound 10 µM, first compound 3 µM) of 76.3%.

`Nc1ncn(C2CC(O)C(CO)O2)c(=O)n1` (configuration not stated) + NC1CC1c1ccc(-c2cccc(O)c2)cc1 was tested, and the IC50 [1] was > 1000 nM, the IC50 [2] was > 1000 nM and the IC50 [3] was > 1000 nM. The IC50 [4] was > 1000 nM, the IC50 [5] was > 1000 nM and the viability, T/C [6] was 101%. For the same compound, the viability, T/C [7] was 98.9%, the viability, T/C [8] was 86.8% and the viability, T/C [9] was 81.2%. It also gave a viability, T/C (second compound 0.1 µM, first compound 0.316 µM) of 89.6%, a viability, T/C (second compound 0.1 µM, first compound 1 µM) of 108% and a viability, T/C [10] of 120%. The viability, T/C [11] was 99.5%, the viability, T/C [12] was 92.2% and the viability, T/C [13] was 75%. The viability, T/C (second compound 0.316 µM, first compound 0.316 µM) was 96.9%, the viability, T/C (second compound 0.316 µM, first compound 1 µM) was 87.6% and the viability, T/C [14] was 104%. It also gave a viability, T/C [15] of 89.9%, a viability, T/C [16] of 72.9% and a viability, T/C [17] of 83.7%. For the same compound, the viability, T/C (second compound 1 µM, first compound 0.316 µM) was 69.1%, the viability, T/C (second compound 1 µM, first compound 1 µM) was 88.4% and the viability, T/C [18] was 82.5%. It also gave a viability, T/C [19] of 93.2%, a viability, T/C [20] of 80.4% and a viability, T/C [21] of 74.4%. The viability, T/C (second compound 3.16 µM, first compound 0.316 µM) was 74.6%, the viability, T/C (second compound 3.16 µM, first compound 1 µM) was 92% and the viability, T/C [22] was 80.5%. It also gave a viability, T/C [23] of 83.9%, a viability, T/C [24] of 80.5% and a viability, T/C [25] of 60.9%. The viability, T/C (second compound 10 µM, first compound 0.316 µM) was 58.1% and the viability, T/C (second compound 10 µM, first compound 1 µM) was 90.9%.

For `Nc1ncn(C2CC(O)C(CO)O2)c(=O)n1` (configuration not stated), the viability, T/C (compound 0.00316 µM) was 81% and 90.1%, the viability, T/C (compound 0.01 µM) was 88.7% and 101% and the viability, T/C (compound 0.0316 µM) was 83.8% and 87.1%. For the same compound, the viability, T/C (compound 0.1 µM) was 89.8% and 79.8%, the viability, T/C (compound 0.316 µM) was 106% and 94.6% and the viability, T/C (compound 1 µM) was 104% and 77.4%. The IC50 (curve of compound) was > 1000 nM.
